# Experimental data as given in patent US20080221114A1, “2-(Cyclic Aminocarbonyl) Indoline Derivative and Medicinal Composition Containing the Same” (priority 2005, published 2008).
# Key:
# mice (male ddY) = experiment: Social interaction test (antianxiety effect); assay type: in vivo, mouse; conditions: oral, 1 hour before test; statistically significant increase in social interaction time vs vehicle (Dunnett's test, 5%)
# Excerpt: The test is a behavioral pharmacological test wherein social interaction time which would arise between 2 animals (mice, rats or other) in a test apparatus is considered to be as an anxious indicator [see; File, S. E., J. Neurosci. Methods, 2, 219-238 (1980)]. It is known that a bright and unfamiliar test apparatus which is an aversive condition for mice or rats may suppress a social interaction of the animals and such suppressed social interaction may be restored by an antianxiety drug such as benzodiazepines.
# A glass beaker which was inverted onto a frosted glass plate was brightly illuminated with a light source (ca. 1200 lux in the apparatus), and it was used as a test apparatus. Two mice (male ddY, 22-32 g) that were housed in separate home cages were orally treated with a test compound and returned to their home cages. One hour after the oral administration, the two mice were then placed together in the test apparatus, and the amount of time spent in social interaction by the two mice during a 15-minute period was recorded. The social interaction was defined as grooming and sniffing of the partner, genital investigation of the partner, climbing over or crawling under the partner. Four to five pairs (8 to 10 mice) were used per a group.
# An antianxiety effect of the test compounds was presented as a minimum effective dose which indicated statistically significant increase in social interaction time as compared with a vehicle control group (Dunnett's test, Significance level: 5%).
# male Std-Wistar rats = experiment: Forced swimming test (antidepressant effect); assay type: in vivo, rat; conditions: 1 mg/kg orally 3 times (24 hours, 4 hours and 1 hour before the test); 6-minute period; vs vehicle, p<0.01
# Procedure: An animal (mouse or rat) which is forced to swim in an inescapable water tank show an immobile posture, thought to reflect a state of behavioral despair, after an initial period of vigorous swimming activity. The forced swimming test, a behavioral despair model, is frequently used for evaluating antidepressant effect since a lot of antidepressants reduce the duration of immobility induced by forced swimming. The antidepressant effect of the compound of the present invention was evaluated in the forced swimming test based on the method of Porsolt R. D. et al. [see; Eur. J. Pharmacol., 47, 379-391 (1978)] with a minor modification.
# In the test, a group of five male Std-Wistar rats, weighing 110-150 g, which were selected after training session was used. […]
# The test compound (the compound of Example 40) was orally administered 3 times, i.e., 24 hours, 4 hours and 1 hour before the test. One hour after the final oral administration, the rats were put into the water and the immobile time observed during a 6-minute period was recorded. The effect shortening the immobile time in the test compound-treated group was evaluated using a Dunnett's multiple comparison test as compared with the vehicle control group.
# [1] = biological target: T1, mitochondrial benzodiazepine receptor (MBR) (Rattus norvegicus, UniProt P16257); experiment: Binding assay of mitochondrial benzodiazepine receptor (MBR), [3H]4'-chlorodiazepam (Ro5-4864), rat kidney membrane-preparation; conditions: rat kidney membranes, [3H]4'-chlorodiazepam 0.5 nM, 0° C. for 150 minutes
# T1 construct: from tissue; host or cells: kidney of male Wistar rats (crude membrane preparation)
# In short: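 Kidney membranes from male Wistar rats were incubated with 0.5 nM [3H]Ro5-4864 in pH 7.4 sodium/potassium phosphate buffer with 100 mM NaCl for 150 min at 0 °C, then filtered. Nonspecific binding was defined with 50 μM diazepam. IC50 was obtained by nonlinear least-squares fitting of specific-binding inhibition.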
melting point,IC50 [1],Compound,Minimum effective dose (mice (male ddY)),shortening of the immobile time (male Std-Wistar rats)
219 to 221 °C,6.05 nM,"C[C@H]1CCCN(C(=O)[C@@H]2Cc3ccccc3N2c2ccc(=O)n(C)n2)C1 [Example 40, (S)-1-(1-methyl-6-oxo-1,6-dihydropyridazin-3-yl)-2-[[(S)-3-methylpiperidin-1-yl]carbonyl]indoline]",1 mg/kg,28%
143 to 145 °C,2.51 nM,"C[C@H]1CCCN(C(=O)[C@@H]2Cc3ccccc3N2c2cccnn2)C1 [Example 63, (S)-2-[(S)-3-methylpiperidin-1-yl]carbonyl-1-(3-pyridazinyl)indoline]",0.01 mg/kg,–
